Results from US8883793B2, “Tubulin inhibitors and methods of using the same” (Development Center for Biotechnology, priority 2010, dated 2014).

Tests used:
KB cell = test: MTS assay, growth inhibition of KB cells; assay type: cell-based; settings: Homo sapiens, at 10 μM concentration, incubated for 72 h, read-out: Inhibition rate (%) (growth inhibition rate of MTS assay)
Outline: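 KB cells were allowed 24 h to attach before a 72 h exposure to compound at 10 μM. Viability was measured by MTS/PMS reduction, with absorbance read at 490 nm after 3 h. Values are reported as percent growth inhibition.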

biotinylated tubulin = test: Colchicine competitive-binding assay; settings: at 10 μM concentration, 3H-colchicine; for binding rate (%) (colchicine competitive-binding): left column pair of Table 7; for Inhibition rate (%) (colchicine competitive-binding): right column pair of Table 7
Method: The colchicine competitive-binding assay was done by using the Colchicine Site competitive Assay Kit (Cytoskeleton, Inc.), streptavidin-coated yttrium SPA beads(GE Healthcare, Inc.), and ^3H-colchicine(PerkinElmer, Inc.). Briefly, the binding mixture includes 1 μL^3H-labeled ligand (specific activity […]), and 1 μg biotinylated tubulin and 88 μg SPA beads in 200 μL assay buffer. The test compound and ^3H-labeled ligand were added before tubulin. After incubation at 37° C. for 2 hours, the SPA beads were allowed to settle down for 24 hours at room temperature, and scintillation counting was done on the TopCount Microplate Scintillation Counter.

porcine brain tubulin = test: Tubulin polymerization assay; assay type: biochemical; settings: at 10 μM concentration
Method: In vitro tubulin polymerization assay was performed by using the Tubulin Polymerization Assay Kit (Cytoskeleton, Inc., Denver, Colo.) in a 96-well format, which used the polymerization of porcine brain tubulin in vitro in the presence of varying concentrations of the test compounds. Fluorescence measurements were obtained at 1-minute intervals over a 31-minute period. Fluorescent measurements were performed using excitation at 365 nm, and emission was measured at 440 nm using a Packard Fusion Alpha Microplate Analyzer. Data were analyzed as relative fluorescent units by GraphPad Prism 5 Demo.

Row | SMILES | inhibition at 10 µM (KB cell) [%] | binding rate (%) (colchicine competitive-binding) (biotinylated tubulin) | Inhibition rate (%) of tubulin polymerization (porcine brain tubulin) [%] | Inhibition rate (%) (colchicine competitive-binding) (biotinylated tubulin)
1 | COc1ccc(Cc2cnc(NC(=O)CCc3ccccc3)s2)cc1 [Compound 9, N-[5-(4-Methoxy-benzyl)-thiazol-2-yl]-3-phenyl-propionamide] | 96.1 | 77.5 | 79.0 | 
2 | COc1ccc(Cc2cnc(NC(=O)CCc3cccnc3)s2)cc1 [Compound 10, N-[5-(4-Methoxy-benzyl)-thiazol-2-yl]-3-pyridin-3-yl-propionamide] | 94.4 | 88.6 | 88.7 | 
3 | COc1ccc(Cc2cnc(NC(=O)CCc3cccnc3)s2)cc1OC [Compound 17, N-[5-(3,4-Dimethoxy-benzyl)-thiazol-2-yl]-3-pyridin-3-yl-propionamide] | 95.9 | 76.9 | 65.3 | 
4 | O=C(CCc1ccccc1)Nc1ncc(Cc2ccc(C(F)(F)F)cc2)s1 [Compound 47, 3-Phenyl-N-[5-(4-trifluoromethyl-benzyl)-thiazol-2-yl]-propionamide] | 94.5 | 55.4 | 57.2 | 
5 | COc1ccc(Cc2cnc(NC(=O)CCc3ccccc3)s2)c(OC)c1OC [Compound 52, 3-Phenyl-N-[5-(2,3,4-trimethoxy-benzyl)-thiazol-2-yl]-propionamide] | 94.5 | 75.4 | 51.2 | 
6 | COc1ccc(Cc2cnc(NC(=O)CCc3cccnc3)s2)c(OC)c1OC [Compound 53, 3-Pyridin-3-yl-N-[5-(2,3,4-trimethoxy-benzyl)-thiazol-2-yl]-propionamide] | 96.7 | 78.7 | 62.2 | 
7 | COc1ccc(Cc2cnc(NC(=O)CCc3ccc(-c4ccccc4)cc3)s2)c(OC)c1OC [Compound 55, 3-Biphenyl-4-yl-N-[5-(2,3,4-trimethoxy-benzyl)-thiazol-2-yl]-propionamide] | 95.1 | 68.8 | 54.9 | 
8 | O=C(CCc1ccccc1)Nc1ncc(-c2ccc(F)cc2)s1 [Compound 58, N-[5-(4-Fluoro-phenyl)-thiazol-2-yl]-3-phenyl-propionamide] | 85.8 |  | 55.1 | 
9 | COc1ccc(Sc2cnc(NC(=O)CCc3ccccc3)s2)cc1 [Compound 69, N-[5-(4-Methoxy-phenylsulfanyl)-thiazol-2-yl]-3-phenyl-propionamide] | 87.6 | 85.2 | 50.5 | 
10 | COc1ccc(Sc2cnc(NC(=O)CCc3ccc(C)o3)s2)cc1 [Compound 71, N-[5-(4-Methoxy-phenylsulfanyl)-thiazol-2-yl]-3-(5-methyl-furan-2-yl)-propionamide] | 94.4 | 86.0 | 60.1 | 
11 | Cc1ccc(CCC(=O)Nc2ccc(-n3ccnc3)cn2)o1 [Compound 77, N-(5-Imidazol-1-yl-pyridin-2-yl)-3-(5-methyl-furan-2-yl)-propionamide] | 87.3 |  | 60.8 | 99.8
12 | O=C(CCc1ccccc1)Nc1ccc(-n2ccc3ccccc32)cn1 [Compound 79, N-(5-Indol-1-yl-pyridin-2-yl)-3-phenyl-propionamide] | 73.7 |  | 53.2 | 90.0
13 | COc1ccc(Sc2ccc(NC(=O)CCc3ccc(C)o3)nc2)cc1 [Compound 83, N-[5-(4-Methoxy-phenylsulfanyl)-pyridin-2-yl]-3-(5-methyl-furan-2-yl)-propionamide] | 95.2 |  | 64.7 | 91.9
14 | COc1ccc(Sc2ccc(NC(=O)CCc3ccccc3)nc2)cc1 [Compound 84, N-[5-(4-Methoxy-phenylsulfanyl)-pyridin-2-yl]-3-phenyl-propionamide] | 94.7 |  | 50.3 | 88.0
15 | Cc1ccc(CCC(=O)Nc2ccc(SCc3ccccc3)cn2)o1 [Compound 85, N-(5-Benzylsulfanyl-pyridin-2-yl)-3-(5-methyl-furan-2-yl)-propionamide] | 76.8 |  | 54.0 | 92.6
16 | Cc1ccc(CCC(=O)Nc2ncc(-c3ccccc3)cn2)o1 [Compound 92, 3-(5-Methyl-furan-2-yl)-N-(5-phenyl-pyrimidin-2-yl)-propionamide] | 97.1 |  | 74.0 | 94.7
17 | O=C(CCc1ccccc1)Nc1ncc(-c2ccccc2)cn1 [Compound 94, 3-Phenyl-N-(5-phenyl-pyrimidin-2-yl)-propionamide] | 97.4 |  | 55.2 | 82.9
18 | O=C(CCc1ccccc1)Nc1ncc(-c2ccc(F)cc2)cn1 [Compound 99, N-[5-(4-Fluoro-phenyl)-pyrimidin-2-yl]-3-phenyl-propionamide] | 95.8 |  | 55.8 | 78.3
19 | COc1cccc(-c2cnc(NC(=O)CCc3ccc(C)o3)nc2)c1OC [Compound 100, N-[5-(2,3-Dimethoxy-phenyl)-pyrimidin-2-yl]-3-(5-methyl-furan-2-yl)-propionamide] | 97.8 |  | 84.3 | 83.4
20 | COc1cccc(-c2cnc(NC(=O)CCc3ccccc3)nc2)c1OC [Compound 102, N-[5-(2,3-Dimethoxy-phenyl)-pyrimidin-2-yl]-3-phenyl-propionamide] | 94.5 |  | 58.6 | 59.2
21 | Cc1ccc(CCC(=O)Nc2ncc(-c3ccc(F)cc3)cn2)o1 [Compound 105, N-[5-(4-Fluoro-phenyl)-pyrimidin-2-yl]-3-(5-methyl-furan-2-yl)-propionamide] | 96.7 |  | 72.2 | 99.3
22 | Cc1ccc(CCC(=O)Nc2ncc(-c3ccc(N(C)C)cc3)cn2)o1 [Compound 106, N-[5-(4-Dimethylamino-phenyl)-pyrimidin-2-yl]-3-(5-methyl-furan-2-yl)-propionamide] | 84.6 |  | 69.3 | 70.1
23 | Cc1ccc(CCC(=O)Nc2ccc(-c3ccccc3)cn2)o1 [Compound 111, 3-(5-Methyl-furan-2-yl)-N-(5-phenyl-pyridin-2-yl)-propionamide] | 65.1 |  | 72.7 | 96.4
24 | Cc1ccc(CCC(=O)Nc2ccc(-c3ccc(F)cc3)cn2)o1 [Compound 112, N-[5-(4-Fluoro-phenyl)-pyridin-2-yl]-3-(5-methyl-furan-2-yl)-propionamide] | 96.2 |  | 76.9 | 87.8
25 | Cc1ccc(CCC(=O)Nc2ncc(-c3ccccc3)cc2C)o1 [Compound 118, 3-(5-Methyl-furan-2-yl)-N-(3-methyl-5-phenyl-pyridin-2-yl)-propionamide] | 93 |  | 81.4 | 99.7
26 | Cc1cc(-c2ccc(N(C)C)cc2)cnc1NC(=O)CCc1ccccc1 [Compound 119, N-[5-(4-Dimethylamino-phenyl)-3-methyl-pyridin-2-yl]-3-phenyl-propionamide] | 95.1 |  |  | 58.2
27 | Cc1ccc(CCC(=O)Nc2ncc(-c3ccc(N(C)C)cc3)cc2C)o1 [Compound 120, N-[5-(4-Dimethylamino-phenyl)-3-methyl-pyridin-2-yl]-3-(5-methyl-furan-2-yl)-propionamide] | 85.9 |  | 51.8 | 97.5
28 | Cc1ccc(CCC(=O)Nc2ccc(Br)cn2)o1 [Compound 123, N-(5-Bromo-pyridin-2-yl)-3-(5-methyl-furan-2-yl)-propionamide] | 95.8 |  | 85.6 | 78.4
29 | Cc1ccc(CCC(=O)Nc2ncc(Br)cc2C)o1 [Compound 124, N-(5-Bromo-3-methyl-pyridin-2-yl)-3-(5-methyl-furan-2-yl)-propionamide] | 93.3 |  | 84.9 | 74.8
